By inhibition is commonly meant the change of the read-out against control, counted positive when it falls. As usually defined, the EC50 is the concentration needed to bring the measured effect to its halfway point. A lower EC50 goes with an effect from little substance.

We go through 33 compounds from patent US20100029643A1 (ASTRAZENECA AB, priority 2006, published 2010).

The experiment concerns the target T1, Edg-1/S1P1 receptor (Homo sapiens, UniProt P21453).
T1 construct: expressed in transfected cells; host or cells: human osteogenic sarcoma U2OS cells: Edg-1 Transfluor U2OS WT Clone #37 (assay I), Edg-1 Transfluor U2OS Clone #3 (assay II)
The experiment can be described thus: In vitro cell based receptor activation assay - Transfluor assay (assay I or II; beta-arrestin GFP relocalization after S1P stimulation). The conditions noted are these: for inhibition at 3.7 µM: at 3.70 μM (titrated from top concentration 100 μM). The method in brief: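 U2OS cells overexpressing S1P1 with a beta-arrestin-GFP construct were pre-incubated with compound for 15 min at room temperature, then stimulated with S1P for 45 min at 37 °C. In assay I, final S1P was 375 nM or 750 nM and compound was a 9-point 3-fold series from 100 μM, in 1% DMSO. Cells were fixed and Hoechst-stained, GFP relocalization was imaged, and EC50 values were fitted.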

Setting [1] is: at 3.50 μM (titrated from top concentration 10 μM).

T1 sequence (P21453 whole entry): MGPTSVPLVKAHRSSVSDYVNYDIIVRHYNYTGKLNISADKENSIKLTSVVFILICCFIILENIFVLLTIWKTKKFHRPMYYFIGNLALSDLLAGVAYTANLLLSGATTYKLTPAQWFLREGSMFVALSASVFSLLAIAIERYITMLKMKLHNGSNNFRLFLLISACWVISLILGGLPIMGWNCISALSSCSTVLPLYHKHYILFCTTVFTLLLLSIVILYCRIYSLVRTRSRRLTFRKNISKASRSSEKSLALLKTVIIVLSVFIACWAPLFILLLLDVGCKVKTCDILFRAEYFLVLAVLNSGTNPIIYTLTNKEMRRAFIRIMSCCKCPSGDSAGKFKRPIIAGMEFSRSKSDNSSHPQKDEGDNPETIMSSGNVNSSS

Turning to `CCn1c([C@@H](C)NS(=O)(=O)c2ccc(C(N)=O)n2C)nc2ccc(C(F)(F)F)cc21` [Example 158, (R)-5-(N-(1-(1-Ethyl-6-(trifluoromethyl)-1H-benzo[d]imidazol-2-yl)ethyl)sulfamoyl)-1-methyl-1H-pyrrole-2-carboxamide], the inhibition at 3.5 µM under setting [1] was found to be 93.6%.
The same measure, in the same setting: the same measure for `CCn1c(C(C)(C)NS(=O)(=O)c2ccc(F)cc2)nc2cnc(C(F)(F)F)cc21` [Example 153, N-(2-(1-Ethyl-6-(trifluoromethyl)-1H-imidazo[4,5-c]pyridin-2-yl)propan-2-yl)-4-fluorobenzenesulfonamide]: 82%.
Regarding `CCn1c([C@@H](C)NS(=O)(=O)c2c(F)cc(F)cc2F)nc2ccc(C(F)(F)F)cc21` [Example 51, N-{(1R)-1-[1-Ethyl-6-(trifluoromethyl)-1H-benzimidazol-2-yl]ethyl}-2,4,6-trifluorobenzenesulfonamide], at 3.7 µM the inhibition was 92.8%.
Take `CCOc1ccc(S(=O)(=O)N[C@H](C)c2nc3ccc(C(F)(F)F)cc3n2CC)cc1` [Example 157, (R)-4-Ethoxy-N-(1-(1-ethyl-6-(trifluoromethyl)-1H-benzo[d]imidazol-2-yl)ethyl)benzenesulfonamide]: the inhibition at 3.5 µM under setting [1] is 88.4%.
In turn, `CCn1c([C@@H](C)NS(=O)(=O)c2ccc(Cl)cc2)nc2cc(F)c(F)c(F)c21` [Example 91, (R)-4-Chloro-N-[1-(1-ethyl-5,6,7-trifluoro-1H-benzoimidazol-2-yl)-ethyl]-benzenesulfonamide] gave an inhibition at 1 µM (at 1 μM (titrated with 3.50 μM as top concentration)) of 91.8%.
For `CCn1c([C@@H](C)NS(=O)(=O)c2ccc(NC(N)=O)cc2)nc2ccc(C(F)(F)F)cc21` [Example 112, (R)-N-(1-(1-Ethyl-6-(trifluoromethyl)-1H-benzo[d]imidazol-2-yl)ethyl)-4-ureidobenzenesulfonamide], the “% inhibition” value under setting [1] is “[drawing 124] (R)-N-(1-(1-Ethyl-6- (trifluoromethyl)-1H- benzo[d]imidazol-2-yl)ethyl)- 4-ureidobenzenesulfonamide (Inactive at 3.50 μM)”.
In the case of `CCn1c(C(C)NS(=O)(=O)c2ccc(CN3CCOCC3)cc2)nc2ccc(C(F)(F)F)cc21` (stereo not shown) [Example 130, N-(1-(1-ethyl-6-(trifluoromethyl)-1H-benzo[d]imidazol-2-yl)ethyl)-4-(morpholinomethyl)benzenesulfonamide], the inhibition at 3.5 µM under setting [1] came to 10.8%.
The compound `CCn1c([C@@H](C)NS(=O)(=O)c2cn(C)nc2C)nc2ccc(C(F)(F)F)cc21` [Example 41, N-{(1R)-1-[1-Ethyl-6-(trifluoromethyl)-1H-benzimidazol-2-yl]ethyl}-1,3-dimethyl-1H-pyrazole-4-sulfonamide] returned an inhibition at 3.7 µM of 61%.
`CCn1c([C@@H](C)NS(=O)(=O)c2cc[n+]([O-])cc2)nc2ccc(C(F)(F)F)cc21` [Example 165, (R)-4-(N-(1-(1-Ethyl-6-(trifluoromethyl)-1H-benzo[d]imidazol-2-yl)ethyl)sulfamoyl)pyridine 1-oxide]: under setting [1], the inhibition at 3.5 µM was 75.6%.
The same measure, in the same setting: the same measure for `CCn1c([C@@H](C)NS(=O)(=O)c2ccc(C#N)nc2)nc2cnc(C3CC3)cc21` [Example 173, 6-Cyano-pyridine-3-sulfonic acid [1-(6-cyclopropyl-1-ethyl-1H-imidazo[4,5-c]pyridin-2-yl)-ethyl]-amide]: 81.9%; for `CCn1c(C(C)(C)NS(=O)(=O)c2ccc(Cl)cc2)nc2ccc(C(F)(F)F)cc21` [Example 136, 4-Chloro-N-{1-[1-ethyl-6-(trifluoromethyl)-1H-benzimidazol-2-yl]-1-methylethyl}benzenesulfon-amide]: 82.9%; for `CCn1c([C@@H](C)NS(=O)(=O)c2ccc(S(C)(=O)=O)cc2)nc2ccc(C(F)(F)F)cc21` [Example 131, (R)-N-(1-(1-Ethyl-6-(trifluoromethyl)-1H-benzo[d]imidazol-2-yl)ethyl)-4-(methylsulfonyl)-benzenesulfonamide]: 95%.
The compound `CCn1ncc(S(=O)(=O)N[C@H](C)c2nc3ccc(C(F)(F)F)cc3n2CC)c1C` [Example 31, 1-Ethyl-N-{(1R)-1-[1-ethyl-6-(trifluoromethyl)-1H-benzimidazol-2-yl]ethyl}-5-mthyl-1H-pyrazole-4-sulfonamide] showed an inhibition at 3.7 µM of 78.6%.
Compound `CCn1c([C@@H](C)NS(=O)(=O)c2ccc(C#N)nc2)nc2ccc(C(F)(F)F)cc21` [Example 105, (R)-6-Cyano-N-(1-(1-ethyl-6-(trifluoromethyl)-1H-benzo[d]imidazol-2-yl)ethyl) pyridine-3-sulfonamide] displayed an inhibition at 3.5 µM under setting [1] of 93.1%.
`CCn1c([C@@H](C)NS(=O)(=O)c2ccc(Cl)cc2)nc2ccc(F)c(F)c21` [Example 65, 4-Chloro-N-[(1R)-1-(1-ethyl-6,7-difluoro-1H-benzimidazol-2-yl)ethyl]benzenesulfonamide]: the inhibition at 3.7 µM was found to be 84.2%.
`CCn1c([C@@H](C)NS(=O)(=O)c2ccc(CC#N)cc2)nc2ccc(C(F)(F)F)cc21` [Example 167, (R)-4-(cyanomethyl)-N-(1-(1-ethyl-6-(trifluoromethyl)-1H-benzo[d]imidazol-2-yl)ethyl)benzenesulfonamide] displayed an inhibition at 3.5 µM under setting [1] of 86%.
In the case of `CC(NS(=O)(=O)c1ccc(Cl)cc1)c1nc2ccccc2n1C1CC1` (stereo not shown) [Example 21, 4-Chloro-N-[1-(1-cyclopropyl-1H-benzimidazol-2-yl)ethyl]benzenesulfonamide], the inhibition at 3.7 µM was 39%. Besides, the concentration giving a half-maximal response (EC50) (one or the other of the two Transfluor assays, Edg-1 Transfluor U2OS cells, S1P ligand) came out at 5.15 µM.
`CCn1c([C@@H](C)NS(=O)(=O)c2ccc(Cl)cc2)nc2cccc(F)c21` [Example 60] came in with an inhibition at 3.7 µM of 97.7%.
`CCn1c([C@@H](C)NS(=O)(=O)c2ccc(Cl)cc2)nc2cc(Cl)c(Cl)cc21` [Example 22, (R)-4-Chloro-N-[1-(5,6-dichloro-1-ethyl-1H-benzoimidazol-2-yl)ethyl]-benzenesulfonamide] yielded an inhibition at 3.7 µM of 63.5%.
The compound `CCn1c([C@@H](C)NS(=O)(=O)c2ccc[n+]([O-])c2)nc2ccc(C(F)(F)F)cc21` [Example 164, (R)-3-(N-(1-(1-ethyl-6-(trifluoromethyl)-1H-benzo[d]imidazol-2-yl)ethyl)sulfamoyl)pyridine 1-oxide] registered an inhibition at 3.5 µM under setting [1] of 19.5%.
Same read-out and setting: the same measure for `CCn1c(C(C)NS(=O)(=O)c2cnc(N)c(Cl)c2)nc2ccc(C(F)(F)F)cc21` (stereo not shown) [Example 169, 6-amino-5-chloro-N-(1-(1-ethyl-6-(trifluoromethyl)-1H-benzo[d]imidazol-2-yl)ethyl)pyridine-3-sulfonamide]: 87.1%.
Take `CCn1c([C@@H](C)NS(=O)(=O)c2cn(C)c(C)n2)nc2ccc(C(F)(F)F)cc21` [Example 42, N-{(1R)-1-[1-Ethyl-6-(trifluoromethyl)-1H-benzimidazol-2-yl]ethyl}-1,2-dimethyl-1H-imidazole-4-sulfonamide]: the inhibition at 3.7 µM was 41.3%.
On the same count and under the same terms, with `CCn1c([C@@H](C)NS(=O)(=O)c2ccc(Cl)cc2)nc2nnc(Cl)cc21` [Example 87, 4-Chloro-N-[(1R)-1-(3-chloro-5-ethyl-5H-imidazo[4,5-c]pyridazin-6-yl)ethyl]benzenesulfonamide] the figure was 62.4%.
The same measure, in the same setting: the same measure for `CCn1c([C@@H](C)NS(=O)(=O)c2ccc(Cl)cc2)nc2cc(-c3ccncc3)ccc21` [Example 83, 4-Chloro-N-[(1R)-1-(1-ethyl-5-pyridin-4-yl-1H-benzimidazol-2-yl)ethyl]benzenesulfonamide]: 16.4%.
Regarding `CCn1c([C@@H](C)NS(=O)(=O)c2ccc(NC)nc2)nc2ccc(C(F)(F)F)cc21` [Example 182, N-{(1R)-1-[1-Ethyl-6-(trifluoromethyl)-1H-benzimidazol-2-yl]ethyl}-6-(methylamino)pyridine-3-sulfonamide], testing at 3.5 µM under setting [1] gave an inhibition of 92.5%.
Under setting [1], `CCn1c(C(C)(C)NS(=O)(=O)c2ccc(C(N)=O)nc2)nc2ncccc21` [Example 178, 5-({[1-(1-Ethyl-1H-imidazo[4,5-b]pyridin-2-yl)-1-methylethyl]amino}sulfonyl)pyridine-2-carboxamide] yielded an inhibition at 3.5 µM of 8.27%.
Turning to `CCn1c([C@@H](C)NS(=O)(=O)c2ccc(Cl)cc2)nc2cc3c(cc21)OCCO3` [Example 62, 4-Chloro-N-[(1R)-1-(1-ethyl-6,7-dihydro-1H-[1,4]dioxino-[2,3-f]benzimidazol-2-yl)-ethyl]benzenesulfonamide], the inhibition at 3.7 µM worked out at 52.2%.
Same read-out and setting: with `CCn1c(C(CC(C)C)NS(=O)(=O)c2ccc(Cl)cc2)nc2ccccc21` (stereo not shown) [Example 4, 4-Chloro-N-[1-(1-ethyl-1H-benzimidazol-2-yl)-3-methyl-butyl}benzenesulfonamide] the figure was 66.4%.
Still for that read-out and setting: the same measure for `CCn1c([C@@H](C)NS(=O)(=O)c2ccc(Cl)cc2)nc2ccc(C(N)=O)cc21` [Example 71, 2-(1-{[(4-Chlorophenyl)sulfonyl]amino}-ethyl)-1-ethyl-1H-benz-imidazole-6-carboxamide]: 77.3%.
The compound `CCn1c(C(C)NS(=O)(=O)c2ccc(Cl)cc2)nc2c(Cl)nccc21` (stereo not shown) [Example 94, 4-Chloro-N-[1-(4-chloro-1-ethyl-1H-imidazo[4,5-c]pyridin-2-yl)ethyl]benzenesulfonamide] gave an inhibition at 3.7 µM of 91.6%.
The compound `CCn1c([C@@H](C)NS(=O)(=O)c2ccc(C(N)=O)nc2)nc2cnc(OC)cc21` [Example 152] showed an inhibition at 3.5 µM under setting [1] of 91.8%.
Still for that read-out and setting: with `CCn1c(C(C)(C)NS(=O)(=O)c2ccc(C#N)cc2)nc2cnc(C(F)(F)F)cc21` [Example 154, 4-Cyano-N-(2-(1-ethyl-6-(trifluoromethyl)-1H-imidazo[4,5-c]pyridin-2-yl)propan-2-yl)benzenesulfonamide] the figure was 77.3%.
The same measure, in the same setting: with `CCn1c([C@@H](C)NS(=O)(=O)c2ccc(Cl)cc2)nc2ccc(C)cc21` [Example 89, 4-Chloro-N-[(1R)-1-(1-ethyl-6-methyl-1H-benzimidazol-2-yl)ethyl]benzenesulfonamide] the figure was 90.7%.
